Assay results as given in patent US8450348B2, “Derivatives of squaric acid with anti-proliferative activity” (Forma TM, LLC, priority 2007, dated 2013).

What was measured:
Type in all cases: cell-based
[1] = tested on: SW-620; experiment: IC50 determination, SRB assay (Example 62); details: Homo sapiens, estimated from fitted curve, growth inhibition
Method: (§1) 3,000-15,000 cells/well were exposed to the test compounds at a concentration of 1 μM for 48 hours, and cytotoxicity was measured using the SRB assay according to Shekan et al (J Natl Cancer Inst (1990) 82, 1107-112). Briefly, cells were plated in 96 well dishes 24 hours prior to compound addition. The assay was terminated with the addition of cold TCA to a final concentration of 10% and the plates were incubated for one hour at 4° C. The plates were then washed 5 times with water and 100 μl of a Sulforhodamine B solution ([…]) was added to each well. The plate was then incubated for 10 minutes at room temperature before removal of unbound dye by washing with 1% acetic acid. The bound dye was solubilized with 10 mM Trizma base and the absorbance read at OD570. Inhibitory activity of the compounds was calculated as % inhibition compared to cells treated with the solvent (DMSO). Table 2 represents the growth inhibitory activity of certain compounds of the invention across a number of tumor cell lines.
(§2) The assay was performed similar to example 61. However, test compounds were added at various concentrations, such as from 0.001 to about 0.1 μM, from 0.1 to about 10 μM, or from 1 to about 10 μM, as the need may be, in order to estimate the IC50 values. IC50 values were determined by plotting the percentage inhibitory activity for each concentration, fitting a curve using appropriate software and estimating the concentration at which 50% inhibition of growth would occur.

[2] = tested on: HCT-116; experiment: IC50 determination, SRB assay (Example 62); details: Homo sapiens, estimated from fitted curve, growth inhibition
Method: as §1, §2

[3] = tested on: MCF7; experiment: IC50 determination, SRB assay (Example 62); details: Homo sapiens, estimated from fitted curve, growth inhibition
Method: as §1, §2

[4] = tested on: SW-620; experiment: SRB assay, % inhibition of tumor cell growth (Example 61); details: Homo sapiens, 48 hours, vs DMSO-treated cells
Method: as §1

[5] = tested on: HCT-116; experiment: as above; details: Homo sapiens, 48 hours, vs DMSO-treated cells
Method: as §1

[6] = tested on: MCF7; experiment: as above; details: Homo sapiens, 48 hours, vs DMSO-treated cells
Method: as §1

[7] = tested on: A2780; experiment: as above; details: Homo sapiens, 48 hours, vs DMSO-treated cells
Method: as §1

[8] = tested on: PC-3; experiment: as above; details: Homo sapiens, 48 hours, vs DMSO-treated cells
Method: as §1

[9] = tested on: A2780; experiment: IC50 determination, SRB assay (Example 62); details: Homo sapiens, estimated from fitted curve, growth inhibition
Method: as §1, §2

[10] = tested on: A-549; experiment: SRB assay, % inhibition of tumor cell growth (Example 61); details: Homo sapiens, A549, 48 hours, vs DMSO-treated cells
Method: as §1

O=c1c(NCCc2ccc(Oc3ccccc3)cc2)c(Nc2cccnc2)c1=O [SQ-5, 3-[2-(4-Phenoxyphenyl)-ethylamino]-4-(pyridin-3-yl-amino)-cyclobut-3-ene-1,2-dione] showed an IC50 [1] of less than 2 µM, an IC50 [2] of less than 0.1 µM and an IC50 [3] of less than 10 µM. It also gave an inhibition at 1 µM [4] of 0%, an inhibition at 1 µM [5] greater than 80% and an inhibition at 1 µM [6] greater than 50%. The inhibition at 1 µM [7] was greater than 80% and the inhibition at 1 µM [8] was greater than 50%.
O=c1c(NCCCCCCOc2ccc(Cl)cc2)c(Nc2ccncc2)c1=O [SQ-7B] showed an IC50 [2] of less than 0.1 µM, an IC50 [3] of less than 0.1 µM and an IC50 [9] of less than 0.1 µM. For the same molecule, the inhibition at 1 µM [4] was greater than 50%, the inhibition at 1 µM [5] was greater than 80% and the inhibition at 1 µM [7] was greater than 80%. The inhibition at 1 µM [8] was greater than 50%.
O=c1c(NCCCCCCOc2ccc(Cl)c(Cl)c2)c(Nc2ccncc2)c1=O [SQ-15] gave an IC50 [1] of less than 0.5 µM, an IC50 [2] of less than 0.1 µM and an inhibition at 1 µM [10] greater than 20%. It also gave an inhibition at 1 µM [4] greater than 20%, an inhibition at 1 µM [5] greater than 80% and an inhibition at 1 µM [6] greater than 20%. It also gave an inhibition at 1 µM [7] greater than 80% and an inhibition at 1 µM [8] greater than 50%.
With O=c1c(NCc2ccc(Oc3ccccc3)cc2)c(Nc2cccnc2)c1=O [SQ-34, 3-(4-Phenoxy-benzylamino)-4-(pyridin-3-ylamino)-cyclobut-3-ene-1,2-dione] the inhibition at 1 µM [10] was 0%, the inhibition at 1 µM [4] was 0% and the inhibition at 1 µM [5] was greater than 20%. The inhibition at 1 µM [7] was greater than 20% and the inhibition at 1 µM [8] was greater than 0%.
